This is an account of results in patent publication US11000033B2, “Ketone or oxime compound, and herbicide” (NISSAN CHEMICAL CORPORATION, priority 2014, dated 2021).

The structures appear in SMILES notation.

Common to all, as to assay type: in vivo
The subject of data set [1] is Setaria viridis. Nature of the data set: Test Example 5: herbicidal effect by foliage application, plastic box (symbol G). The conditions noted are these: 3 weeks after application; for G: Setaria viridis, herbicidal effect grade: 320 g/ha. An outline of the steps: (§1)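 Greenhouse foliar test: seedlings at 14 days, grown 25° C. to 30° C. in sterilized diluvial soil; compound applied as an aqueous dilution of an emulsion; response read 3 weeks after spraying.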

The test system of data set [2] is soybean. Nature of the data set: Test Example 4: effect on crop by soil treatment (symbol d). Summed up: (§2)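 Soil-treatment setup: crop and weed seeds were spot-sown into sterilized diluvial soil, then buried beneath approximately 1.5 cm of it, and the boxes were housed in a 25–30° C. greenhouse.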
For data set [3], the system named is soybean. In words: Test Example 5: effect on crop by foliage application, plastic box (symbol d). The conditions noted are these: 3 weeks after application; for d: soybean, effect on crop grade: 320 g/ha. Summed up:
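Greenhouse test at 25° C. to 30° C. Seeds of crops and weeds were spot-sown in boxes of sterilized diluvial soil under roughly 1.5 cm soil cover, then grown for foliage treatment.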

For data set [4], the system named is corn. Nature of the data set: Test Example 4: effect on crop by soil treatment (symbol c). Summed up:
as §2

The test system of data set [5] is Veronica persica. In words: Test Example 5: herbicidal effect by foliage application, plastic box (symbol R). The conditions noted are these: 3 weeks after application; for R: Veronica persica, herbicidal effect grade: 320 g/ha. An outline of the steps:
as §1

Data set [6] relates to Lolium multiflorum Lam. Nature of the data set: Test Example 5: herbicidal effect by foliage application, plastic box (symbol K). The conditions noted are these: 3 weeks after application; for K: Lolium multiflorum Lam., herbicidal effect grade: 320 g/ha. An outline of the steps:
as §1

The subject of data set [7] is rice. Nature of the data set: Test Example 4: effect on crop by soil treatment (symbol b). An outline of the steps: as §2
Data set [8] deals with wheat. Nature of the data set: Test Example 4: effect on crop by soil treatment (symbol e). An outline of the steps: as §2
Data set [9] relates to Alopecurus myosuroides. Nature of the data set: Test Example 5: herbicidal effect by foliage application, plastic box (symbol J). The conditions noted are these: 3 weeks after application; for J: Alopecurus myosuroides, herbicidal effect grade: 320 g/ha. An outline of the steps:
as §1

For data set [10], the system named is Galium spurium. In words: Test Example 4: herbicidal effect by soil treatment (symbol Q). Summed up: (§3)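 Seeds were sown in sterilized diluvial soil, covered with about 1.5 cm of soil, and the soil surface was sprayed with a water-diluted emulsion of the compound at a predetermined rate. Plants grew in a greenhouse at 25° C. to 30° C.; effects were scored visually 3 weeks after application.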

For data set [11], the system named is Echinochloa oryzacola Vasing. In words: Test Example 1: herbicidal activity, application before weed generation in submerged conditions (symbol A). An outline of the steps: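 Greenhouse growth at 25–30 °C lasted 3 weeks after treatment, when each weed was graded 0–5 by herbicidal ratio. Treatment was a diluted emulsion applied to the water surface of 4 cm-submerged alluvial soil on the sowing day.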

Data set [12] deals with Cyperus difformis. In words: Test Example 3: herbicidal effect by foliage application, Wagner pot (symbol E). Summed up:
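Foliar spray of a water-diluted emulsion at a predetermined herbicide amount, applied to 14-day-old plants. Seedlings were raised in flooded alluvial soil (0.1–0.5 cm water) at 25–30 °C in a greenhouse. Injury was rated after 3 weeks against fixed criteria.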

Data set [13] deals with Lolium multiflorum Lam. Nature of the data set: Test Example 4: herbicidal effect by soil treatment (symbol K). Summed up:
as §3

Data set [14] concerns Veronica persica. Nature of the data set: Test Example 4: herbicidal effect by soil treatment (symbol R). Summed up:
as §3

Data set [15] has as its system Alopecurus myosuroides. Nature of the data set: Test Example 4: herbicidal effect by soil treatment (symbol J). Summed up: as §3
The subject of data set [16] is Setaria viridis. In words: Test Example 4: herbicidal effect by soil treatment (symbol G). An outline of the steps: as §3
Data set [17] relates to Amaranthus retroflexus. In words: Test Example 5: herbicidal effect by foliage application, plastic box (symbol N). The conditions noted are these: 3 weeks after application; for N: Amaranthus retroflexus, herbicidal effect grade: 320 g/ha. An outline of the steps: as §1
The subject of data set [18] is Apera spica-venti. In words: Test Example 4: herbicidal effect by soil treatment (symbol L). An outline of the steps:
as §3

The test system of data set [19] is Avena fatua. In words: Test Example 5: herbicidal effect by foliage application, plastic box (symbol I). The conditions noted are these: 3 weeks after application; for I: Avena fatua, herbicidal effect grade: 320 g/ha. An outline of the steps:
as §1

[20] abbreviates: application herbicide amount 320 g/ha.
The mark [21] stands for this setting: application herbicide amount 192 g/ha.

Regarding `CON=C(C)CC1CC(OS(C)(=O)=O)=C(c2c(C)cc(C)cc2C)C1=O` (stereo not drawn) [1-006], the “G: Setaria viridis, herbicidal effect grade” value in data set [1] is on record as 5 (Herbicidal ratio of 90% or more (almost completely withered)). Besides, the “d (soybean) effect on crop grade” value in data set [2] (setting [20]) was 0 (Herbicidal ratio of 5% or lower (almost no effect)). In addition, in data set [3], the “d: soybean, effect on crop grade” value was 4 (Herbicidal ratio of 70% or higher and lower than 90%). Besides, the “c (corn) effect on crop grade” value in data set [4] (setting [20]) was 1 (Herbicidal ratio of 5% or higher and lower than 20%). Moreover, the “R: Veronica persica, herbicidal effect grade” value in [5] is 2 (Herbicidal ratio of 20% or higher and lower than 40%). Besides, the “K: Lolium multiflorum Lam., herbicidal effect grade” value in data set [6] is 5 (Herbicidal ratio of 90% or more (almost completely withered)). Further, the “b (directly sowed rice plant) effect on crop grade” value in data set [7] (setting [20]) was 5 (Herbicidal ratio of 90% or more (almost completely withered)). For the same molecule, the “e (wheat) effect on crop grade” value in data set [8] (setting [20]) is 0 (Herbicidal ratio of 5% or lower (almost no effect)). For the same molecule, the “J: Alopecurus myosuroides, herbicidal effect grade” value in data set [9] is given as 5 (Herbicidal ratio of 90% or more (almost completely withered)). Besides, the “Q (Galium spurium) herbicidal effect grade” value in data set [10] (setting [20]) was 0 (Herbicidal ratio of 5% or lower (almost no effect)). Also, the “Herbicidal effect grade, A: Echinochloa oryzacola Vasing.” value in data set [11] (setting [20]) was 5 (Herbicidal ratio of 90% or more (almost completely withered)). Also, in data set [12] (setting [20]), the “herbicidal effect on E, grade 0-5” value is reported as 5 (Herbicidal ratio of 90% or more (almost completely withered)). Also, the “K (Lolium multiflorum Lam.) herbicidal effect grade” value in [13] (setting [20]) was 5 (Herbicidal ratio of 90% or more (almost completely withered)). The “R (Veronica persica) herbicidal effect grade” value in data set [14] (setting [20]) was 0 (Herbicidal ratio of 5% or lower (almost no effect)). In addition, the “J (Alopecurus myosuroides) herbicidal effect grade” value in data set [15] (setting [20]) is 4 (Herbicidal ratio of 70% or higher and lower than 90%). Besides, the “G (Setaria viridis) herbicidal effect grade” value in data set [16] (setting [20]) was 4 (Herbicidal ratio of 70% or higher and lower than 90%). Also, the “N: Amaranthus retroflexus, herbicidal effect grade” value in [17] is 3 (Herbicidal ratio of 40% or higher and lower than 70%). The “L (Apera spica-venti) herbicidal effect grade” value in data set [18] (setting [20]) is listed as 5 (Herbicidal ratio of 90% or more (almost completely withered)). For the same molecule, the “I: Avena fatua, herbicidal effect grade” value in data set [19] is listed as 5 (Herbicidal ratio of 90% or more (almost completely withered)).

Consider `CC(CC1CC(OC(=O)N2CCOCC2)=C(c2c(C)cc(-c3ccc(Cl)cc3)cc2C)C1=O)=NOCC(F)(F)F` (mixture of isomers) [9-025], for which the “G: Setaria viridis, herbicidal effect grade” value in data set [1] is 4 (Herbicidal ratio of 70% or higher and lower than 90%). Moreover, the “Effect on crop grade, d: soybean” value in data set [2] (setting [20]) is listed as 0 (Herbicidal ratio of 5% or lower (almost no effect)). Besides, the “d: soybean, effect on crop grade” value in [3] is on record as 0 (Herbicidal ratio of 5% or lower (almost no effect)). Moreover, in data set [4] (setting [20]), the “Effect on crop grade, c: corn” value is 0 (Herbicidal ratio of 5% or lower (almost no effect)). In addition, the “R: Veronica persica, herbicidal effect grade” value in [5] is 0 (Herbicidal ratio of 5% or lower (almost no effect)). Moreover, the “K: Lolium multiflorum Lam., herbicidal effect grade” value in data set [6] is given as 0 (Herbicidal ratio of 5% or lower (almost no effect)). In addition, the “Effect on crop grade, b: directly sowed rice plant” value in data set [7] (setting [20]) is 0 (Herbicidal ratio of 5% or lower (almost no effect)). The “Effect on crop grade, e: wheat” value in [8] (setting [20]) is 0 (Herbicidal ratio of 5% or lower (almost no effect)). In addition, the “J: Alopecurus myosuroides, herbicidal effect grade” value in [9] is on record as 0 (Herbicidal ratio of 5% or lower (almost no effect)). Further, the “Herbicidal effect grade, Q: Galium spurium” value in data set [10] (setting [20]) is given as 0 (Herbicidal ratio of 5% or lower (almost no effect)). Moreover, in data set [11] (setting [20]), the “A (Echinochloa oryzacola Vasing.) herbicidal effect grade” value is given as 5 (Herbicidal ratio of 90% or more (almost completely withered)). Besides, in data set [12] (application herbicide amount 320 g/ha, Table 24), the “E herbicidal effect grade” value was 0 (Herbicidal ratio of 5% or lower (almost no effect)). Moreover, the “Herbicidal effect grade, K: Lolium multiflorum Lam.” value in data set [13] (setting [20]) was 0 (Herbicidal ratio of 5% or lower (almost no effect)). Besides, the “Herbicidal effect grade, R: Veronica persica” value in data set [14] (setting [20]) is 0 (Herbicidal ratio of 5% or lower (almost no effect)). The “Herbicidal effect grade, J: Alopecurus myosuroides” value in data set [15] (setting [20]) is 0 (Herbicidal ratio of 5% or lower (almost no effect)). For the same molecule, the “Herbicidal effect grade, G: Setaria viridis” value in [16] (setting [20]) was 0 (Herbicidal ratio of 5% or lower (almost no effect)). For the same molecule, the “N: Amaranthus retroflexus, herbicidal effect grade” value in [17] is recorded as 0 (Herbicidal ratio of 5% or lower (almost no effect)). For the same molecule, in data set [18] (setting [20]), the “Herbicidal effect grade, L: Apera spica-venti” value is reported as 0 (Herbicidal ratio of 5% or lower (almost no effect)). The “I: Avena fatua, herbicidal effect grade” value in [19] was 3 (Herbicidal ratio of 40% or higher and lower than 70%).

For the molecule `CON=C(C)CC1CC(OC(=O)C2CCCO2)=C(c2c(C)cc(C)cc2C)C1=O` (stereo not drawn) [1-076], the “G: Setaria viridis, herbicidal effect (criteria 0-5)” value in [1] (192 g/ha) is 5 (Herbicidal ratio of 90% or more (almost completely withered)). Besides, the “d: soybean, effect grade on crop” value in data set [2] (192 g/ha) is recorded as 0 (Herbicidal ratio of 5% or lower (almost no effect)). Besides, the “d: soybean, effect on crop (criteria 0-5)” value in [3] (192 g/ha) is 4 (Herbicidal ratio of 70% or higher and lower than 90%). Further, the “c: corn, effect grade on crop” value in data set [4] (192 g/ha) was 2 (Herbicidal ratio of 20% or higher and lower than 40%). The “R: Veronica persica, herbicidal effect (criteria 0-5)” value in data set [5] (192 g/ha) is 3 (Herbicidal ratio of 40% or higher and lower than 70%). Further, in data set [6] (192 g/ha), the “K: Lolium multiflorum Lam., herbicidal effect (criteria 0-5)” value was 5 (Herbicidal ratio of 90% or more (almost completely withered)). The “b: directly sowed rice plant, effect grade on crop” value in [7] (192 g/ha) is recorded as 5 (Herbicidal ratio of 90% or more (almost completely withered)). Moreover, the “e: wheat, effect grade on crop” value in data set [8] (192 g/ha) was 4 (Herbicidal ratio of 70% or higher and lower than 90%). The “J: Alopecurus myosuroides, herbicidal effect (criteria 0-5)” value in data set [9] (192 g/ha) was 5 (Herbicidal ratio of 90% or more (almost completely withered)). Further, the “Q: Galium spurium, herbicidal effect grade” value in data set [10] (192 g/ha) is recorded as 0 (Herbicidal ratio of 5% or lower (almost no effect)). The “Herbicidal effect grade, A: Echinochloa oryzacola Vasing.” value in data set [11] (setting [21]) is 4 (Herbicidal ratio of 70% or higher and lower than 90%). The “herbicidal effect on E, grade 0-5” value in data set [12] (setting [21]) is 5 (Herbicidal ratio of 90% or more (almost completely withered)). Moreover, in data set [13] (192 g/ha), the “K: Lolium multiflorum Lam., herbicidal effect grade” value is 5 (Herbicidal ratio of 90% or more (almost completely withered)). For the same molecule, the “R: Veronica persica, herbicidal effect grade” value in data set [14] (192 g/ha) is given as 0 (Herbicidal ratio of 5% or lower (almost no effect)). Moreover, the “J: Alopecurus myosuroides, herbicidal effect grade” value in [15] (192 g/ha) is 4 (Herbicidal ratio of 70% or higher and lower than 90%). The “G: Setaria viridis, herbicidal effect grade” value in data set [16] (192 g/ha) is on record as 5 (Herbicidal ratio of 90% or more (almost completely withered)). Moreover, in [17] (192 g/ha), the “N: Amaranthus retroflexus, herbicidal effect (criteria 0-5)” value is 0 (Herbicidal ratio of 5% or lower (almost no effect)). For the same molecule, the “L: Apera spica-venti, herbicidal effect grade” value in data set [18] (192 g/ha) is on record as 5 (Herbicidal ratio of 90% or more (almost completely withered)). The “I: Avena fatua, herbicidal effect (criteria 0-5)” value in data set [19] (192 g/ha) is 5 (Herbicidal ratio of 90% or more (almost completely withered)).
